Test results: patent publication US7410765B2, “System for protease mediated protein expression” (The Regents of the University of California, priority 2004, dated 2008)

System: caspase-3
Test: Caspase-3-dependent DsRed fluorescence in live transgenic zebrafish embryos injected with the UbG-DEVDsRx reporter construct
Format: in vivo
Method: As discussed in detail below, the invention was tested by making a construct where the degradation signal is a non-removable ubiquitin moiety (G76V zebrafish ubiquitin mutant) fused to the red fluorescent protein DsRed Express by a linker containing a caspase-3 cleavage site (amino acid sequence: DEVD; SEQ ID NO: 1). […] The DNA construct was microinjected in one-cell-stage zebrafish embryos to generate transgenic fish where apoptotic cells express the red fluorescent marker.
Specific labelling of apoptotic cells by UbG-DEVDsRx depends on a functional proteasomal degradation pathway because failure to degrade the UbG76V-tagged chimera would allow fluorescence to develop, even in the absence of caspase-3 activity.
Morpholino-modified oligonucleotides were injected in the yolk of one-cell-stage embryos. DNA constructs were linearized and injected in the cytoplasm of one-cell-stage embryos. For each experiment, 200-250 transgenics were generated. Upon reaching the desired age, 20-30 embryos with similar transgene expression levels and low-mosaicism were selected for TUNEL labelling, confocal microscopy, in vivo observations and cell counts.
Fixed and live embryos were embedded in 1.2% low-melt agarose on a glass slide and immersed in a drop of water to retain humidity.

expression of red fluorescence in embryo injected with the test construct (embryo incubated in the presence of Z-DEVD-FMK, 75 μM, FIG. 1e): does not express any fluorescence
fluorescence (UbG-DEVDsRx labelling) in living transgenic embryos (embryos exposed to the caspase-3 inhibitor, concentration not given): fluorescence is absent
Structure (SMILES): COC(=O)CC[C@H](NC(=O)[C@H](CC(=O)OC)NC(=O)OCc1ccccc1)C(=O)N[C@H](C(=O)N[C@@H](CC(=O)OC)C(=O)CF)C(C)C [Z-DEVD-FMK]
